Reference: patent publication US20240024402A1, “COMPOSITION FOR IMPROVING INSULIN SENSITIVITY, CONTAINING GENTIANA TRIFLORAL PALLAS EXTRACT” (MTHERA PHARMA CO., LTD., priority 2020, published 2024)

System: ogt mRNA
Experiment: ogt mRNA expression in HepG2 cells cultured with glucose, MGO and other sugars/aldehydes
Type: cell-based
Details: MGO, 24 hours
Experimental: The HepG2 cells were cultured in a cell culture medium containing glucose, fructose, methylglyoxal (MGO), glyoxal (GO), glyceraldehyde 3-phosphate (G3P), glyceraldehyde, and glycolaldehyde for 24 hours, respectively, and the expression level of ogt mRNA was measured and shown in FIG. 5.

## CC(=O)C=O [MGO, methylglyoxal]
  ogt mRNA expression compared to the control group: increased nearly twice
